Test results taken from patent US5026836A, “6-sulfenamide, 6-sulfinamide and 6-sulfonamide purines, purine nucleosides, purine nucleotides, pharmaceutical compositions, and processes of making” (priority 1988, dated 1991).
“Also recorded” adds a separate entry of the source.

Tests used:
[1] = tested on: adenocarcinoma; conditions: background; cited from earlier work
[2] = tested on: L1210 cells; test: Bioassay of viable L1210 cells in brain after intracranial inoculation and ip drug; assay type: in vivo, mouse; conditions: for Residual cells (% of control brain): 24 hr after single ip dose (mg/kg): Methotrexate 12, Adriamycin 3, 6-Mercaptopurine 160, Cytosine Arabinoside 1200, Cyclophosphamide 140, Compound 19 173, Tiazofurin 1200, BCNU 20; for intracranial activity: intracranial L1210; for Activity against I.C. L1210 cells, Cell Kill: ip dosage: Compound 18 22 mg/kg, Compound 19 173 mg/kg, Compound 20 62 mg/kg; for crossing of blood brain barrier / CNS penetration (words): mouse, in vivo
Source text: BDF1 mice were inoculated intracranially on day 0 with 1×10^5 L1210 cells. […] 24 hr after drug delivery the brains were collected, homogenized, and injected ip into untreated mice. Each mouse received the equivalent of half a brain. Thereafter, life span was monitored and, using inoculum-response data as a base of comparison, estimates were made of the numbers of viable cells in treated and control brains.

[3] = tested on: Human Colon Adenocarcinoma CX-1; conditions: data from Goldin et al 1981; activity indicated at ≤20; cited from earlier work
[4] = tested on: drug resistant cell lines; conditions: background knowledge; cited from earlier work
[5] = Solubility (maximum solubility); assay type: physicochemical
[6] = Toxicity / maximum tolerated dosage in mice; assay type: in vivo; conditions: mouse, in vivo, ip, single QD day 1 ip, L1210-inoculated BDF1 mice; read-out: Max. tolerated dosage
Experimental: In Example N other compounds of the invention were tested against L1210 cells. […] Activity in Table 14-a is tabulated as both increases in life span and as cells surviving treatment and that in table 14-b as T/C.

[7] = tested on: drug resistant cell lines; test: Generation of drug resistant cell lines
[8] = tested on: L1210/6MP, 6TG, 6TGR cells; test: Life span of mice inoculated with L1210 resistant to 6MP, 6TG, 6TGR; assay type: in vivo, mouse; conditions: for activity against drug resistant cells (words): mouse, in vivo
[9] = tested on: L1210 cells; test: Life span of BDF1 mice inoculated ip with 10^6 L1210 leukemia cells; assay type: in vivo, mouse
Experimental: As illustrative examples of use of the compounds of the invention the following examples are given. […] These standard tests utilize protocols developed under the auspices of the Developmental Therapeutics Program, Division of Cancer Treatment, National Cancer Institute, Bethesda, Md., U.S.A. Except as otherwise indicated the tests conform to these protocols and are evaluated utilizing criteria defined by the protocols.
Values below 25% are considered capable of producing effective therapy, those below 10% are considered good and those below 5% are considered very good. This expresses the percent of the cells which survived treatment based upon the original cells in the inoculum. Those tests expressed as increases in life span (% ILS) indicate the increased life span of the drug treated group compared to a control group.
As an indicator of reproducible activity, compounds of the invention and other known cancer chemotherapeutic agents were screened against L1210 lymphoid leukemia in vivo utilizing the mouse as a test species. Normal NCI protocols for this test require 10^5 seed cells of the L1210 cell line.
Cytosine Arabinoside must be given every three hours.
Mice were inoculated intraperitoneally on day 0 with a million cells of murine leukemia L1210. Drug was given qd days 1, 4 and 7. Increased life span is the mean increase in the treated group presented as a percentage of the mean life span of control mice.
Mice were inoculated intraperitoneally on day 0 with a million cells of murine leukemia L1210. Drugs were given qd days 1, 3, 5 and 7. Increased life span is presented as a percentage of the mean life span of control mice.

Structure (SMILES): Sc1ncnc2nc[nH]c12 [6-Mercaptopurine]
- activity against adenocarcinoma [1]: highly active against adenocarcinoma
- Residual cells (% of control brain) [2]: 37%
- Activity rating δT/δC [3]: 99
- inducement of drug resistant cell lines [4]: inducement of drug resistant cell line occurs

Structure (SMILES): NSc1nc(N)nc2c1ncn2[C@@H]1O[C@H](CO)[C@@H](O)[C@H]1O [Compound 18, 2-amino-9-β-D-ribofuranosyl-9H-purine-6-sulfenamide]
- Max. sol. dosage [5]: 22 mg/kg
- MTD [6]: 22 mg/kg
- intracranial activity [2]: active intracranially
- Activity against I.C. L1210 cells, Cell Kill [2]: 57.3 x
- crossing of blood brain barrier / CNS penetration (words) [2]: effectively cross the blood brain barrier
- generation of drug resistant cell lines (words) [7]: does generate drug resistant cell lines; also recorded: generates drug resistant cells
- Activity against I.P. L1210 cells resistant to 6MP, 6TG, 6TGR, T/C ([8]; 22 mg/kg, qd day 1): 93.8%
- activity against drug resistant cells (words) [8]: shows no activity
- oral activity (words) [9]: Oral activity is seen
- Activity against I.P. L1210 cells, T/C ([9]; oral 8 mg/kg, qd day 1): 147.0%
- Activity against I.P. L1210 cells, T/C ([9]; oral 13 mg/kg, qd day 1): 147.0%
- Activity against I.P. L1210 cells, T/C ([9]; oral 22 mg/kg, qd day 1): 153.0%
- % ILS ([9]; single agent day 1, Compound 19 173 mg/kg, Compound 18 22 mg/kg (Table 12)): 51%

Structure (SMILES): Nc1nc(S(N)(=O)=O)c2ncn([C@@H]3O[C@H](CO)[C@@H](O)[C@H]3O)c2n1 [Compound 20, 2-amino-9-β-D-ribofuranosyl-9H-purine-6-sulfonamide]
- Max. sol. dosage [5]: 62 mg/kg
- MTD [6]: 62 mg/kg
- intracranial activity [2]: no intracranial activity is seen
- Activity against I.C. L1210 cells, Cell Kill [2]: 0.0 x
- crossing of blood brain barrier / CNS penetration (words) [2]: lack of oral activity and CNS penetration
- Activity against I.P. L1210 cells resistant to 6MP, 6TG, 6TGR, T/C ([8]; 22 mg/kg, bid days 1,4,7): 106.7%
- Activity against I.P. L1210 cells resistant to 6MP, 6TG, 6TGR, T/C ([8]; 37 mg/kg, bid days 1,4,7): 130.0%
- Activity against I.P. L1210 cells resistant to 6MP, 6TG, 6TGR, T/C ([8]; 62 mg/kg, bid days 1,4,7): 163.3%
- activity against drug resistant cells (words) [8]: active
- oral activity (words) [9]: not present
- Activity against I.P. L1210 cells, T/C ([9]; oral 22 mg/kg, bid days 1,4,7): 103.3%
- Activity against I.P. L1210 cells, T/C ([9]; oral 37 mg/kg, bid days 1,4,7): 103.3%
- Activity against I.P. L1210 cells, T/C ([9]; oral 62 mg/kg, bid days 1,4,7): 103.3%
- oral activity (words) ([9]; listed as 6-sulfonamide analog): lack of oral activity

Structure (SMILES): Nc1ccn([C@@H]2O[C@H](CO)[C@@H](O)[C@@H]2O)c(=O)n1 [Cytosine Arabinoside]
- Residual cells (% of control brain) [2]: 15%
- Activity rating δT/δC [3]: 73
- inducement of drug resistant cell lines [4]: inducement of drug resistant cell line occurs
